Measured values as given in patent US20170281602A1, “SOLID FORMS OF (S)-2-METHOXY-3--PROPIONIC ACID AND OF SALTS THEREOF” (Hoffmann-La Roche Inc., priority 2012, published 2017).

Tests used:
Type in all cases: physicochemical
[1] = Competing slurry experiment between Free acid Forms A, B and C; settings: isopropyl acetate, 20 and 60° C., seeded with Free acid Form B and Form C, 14 days, wet stage XRPD
Experimental: Description of a typical competing slurry experiment:
200 and 300 mg of form A of (S)-2-methoxy-3-{4-[2-(5-methyl-2-phenyl-oxazol-4-yl)-ethoxy]-benzo[b]thiophen-7-yl}-propionic acid were each suspended in ca. 1 mL of isopropyl acetate at 20 and 60° C., respectively. After 24 h the two suspensions were seeded with approximately 10 mg of Free acid Form B and Free acid Form C. After 14 days the crystals were harvested by filtration and analyzed in wet stage by XRPD.

[2] = Hygroscopicity of the solid forms (DVS sorption/desorption isotherms); settings: in words
Experimental: (§1) DVS isotherms were collected on a DVS-1, DVS-HT and DVS Intrinsic (SMS Surface Measurements Systems) moisture balance system. The sorption/desorption isotherms were measured stepwise in a range of 0% RH to 90% RH at 25° C. A weight change of <0.002 mg/min was chosen as criterion to switch to the next level of relative humidity (with a maximum equilibration time of 24 hours, if the weight criterion was not met). The data were corrected for the initial moisture content of the samples; that is, the weight after drying the sample at 0% RH was taken as the reference point.

[3] = Relative stability of the solid forms (statements in words); settings: for solid form stability: in words
[4] = Thermal solid-form transformation (DSC, temperature controlled XRPD); settings: for temperature of thermal transformation into Sodium salt Form A: incubation at high temperature; for glass transition temperature, above which recrystallization is likely to occur: midpoint
Experimental: DSC curves were recorded using a Mettler-Toledo™ differential scanning calorimeter DSC820, DSC821 or DSC1 with a FRS05 sensor. System suitability tests were performed with indium as reference substance and calibrations were carried out using indium, benzoic acid, biphenyl and zinc as reference substances.
(§2) For the measurements, approximately 2-6 mg of sample were placed in aluminum pans, accurately weighed and hermetically closed with perforation lids. Prior to measurement, the lids were automatically pierced resulting in approx. 1.5 mm pin holes. The samples were then heated under a flow of nitrogen of about 100 mL/min using heating rates of usually 10 K/min.
(§3) X-ray powder diffraction patterns were recorded at ambient conditions in transmission geometry with a STOE STADI P diffractometer (Cu K ? ? radiation, primary monochromator, position sensitive detector, angular range 3° to 42° 2Theta, approximately 60 minutes total measurement time). Approximately 25 mg of sample were prepared and analyzed without further processing (e.g. grinding or sieving) of the substance.

[5] = Humidity-induced solid-form transformation (humidity controlled XRPD, DVS); settings: at 25° C.
Experimental: as §1, §3

[6] = Decomposition temperature of the solid form (thermal analysis)
Experimental: TGA analysis was performed on a Mettler-Toledo™ thermogravimetric analyzer (TGA850 or TGA851). System suitability tests were performed with Hydranal as reference substance and calibrations using aluminum and indium as reference substances.
as §2, with “thermogravimetric analyses, approx. 5 to 10” for “measurements, approximately 2-6”, “50” for “100”, “using a” for “using”, “rate” for “rates”, “5” for “usually 10”

## CO[C@@H](Cc1ccc(OCCc2nc(-c3ccccc3)oc2C)c2ccsc12)C(=O)O [Free acid Form A, (S)-2-methoxy-3-{4-[2-(5-methyl-2-phenyl-oxazol-4-yl)-ethoxy]-benzo[b]thiophen-7-y1}-propionic acid]
[1]
  solid form obtained in competing slurry: pure Free acid Form A is obtained
[2]
  hygroscopicity: non-hygroscopic
[3]; below ca. 60° C.
  thermodynamic stability among polymorphs: thermodynamically most stable polymorph
[4]; temperature controlled XRPD
  temperature of transformation into Free acid Form B: > 85 °C

## CO[C@@H](Cc1ccc(OCCc2nc(-c3ccccc3)oc2C)c2ccsc12)C(=O)O [Free acid Form B, (S)-2-methoxy-3-{4-[2-(5-methyl-2-phenyl-oxazol-4-yl)-ethoxy]-benzo[b]thiophen-7-y1}-propionic acid]
[4]; extrapolated peak DSC
  temperature below which spontaneous transformation into Free acid Form A occurs: < −5 °C
[4]; observed at this temperature or below
  temperature of spontaneous solid-solid retransformation into Free acid Form A: ≤ 45 °C

## CO[C@@H](Cc1ccc(OCCc2nc(-c3ccccc3)oc2C)c2ccsc12)C(=O)O [Free acid Form C, (S)-2-methoxy-3-{4-[2-(5-methyl-2-phenyl-oxazol-4-yl)-ethoxy]-benzo[b]thiophen-7-yl}-propionic acid]
[3]; at ambient temperature
  thermodynamic stability among polymorphs: thermodynamically less stable than Free acid Form A and Free acid Form B
[4]; extrapolated peak DSC
  temperature of transformation into Free acid Form B: ca. 150 °C

## CO[C@@H](Cc1ccc(OCCc2nc(-c3ccccc3)oc2C)c2ccsc12)C(=O)O [Free acid Form D, (S)-2-methoxy-3-{4-[2-(5-methyl-2-phenyl-oxazol-4-yl)-ethoxy]-benzo[b]thiophen-7-yl}-propionic acid]
[3]
  solid form stability: transforms into Free acid Form B upon storage at ambient conditions over time

## CO[C@@H](Cc1ccc(OCCc2nc(-c3ccccc3)oc2C)c2ccsc12)C(=O)O [Free acid Form E, (S)-2-methoxy-3-{4-[2-(5-methyl-2-phenyl-oxazol-4-yl)-ethoxy]-benzo[b]thiophen-7-yl}-propionic acid]
[3]
  solid form stability: transforms into Free acid Form B upon mild heating

## CO[C@@H](Cc1ccc(OCCc2nc(-c3ccccc3)oc2C)c2ccsc12)C(=O)[O-].[Na+] [Sodium salt Form A, sodium (S)-2-methoxy-3-{4-[2-(5-methyl-2-phenyl-oxazol-4-yl)-ethoxy]-benzo[b]thiophen-7-yl}-propanoate]
[5]
  relative humidity above which transformation into hydrated form occurs: > 80 % RH
[4]
  temperature of transformation into Sodium salt Form B: > 208 °C

## CO[C@@H](Cc1ccc(OCCc2nc(-c3ccccc3)oc2C)c2ccsc12)C(=O)[O-].[Na+] [Sodium salt Form B, sodium (S)-2-methoxy-3-{4-[2-(5-methyl-2-phenyl-oxazol-4-yl)-ethoxy]-benzo[b]thiophen-7-yl}-propanoate]
[3]
  solid form stability: metastable
[4]
  temperature of thermal transformation into Sodium salt Form A: > 120 °C

## CO[C@@H](Cc1ccc(OCCc2nc(-c3ccccc3)oc2C)c2ccsc12)C(=O)[O-].[Na+] [Sodium salt Form C, sodium (S)-2-methoxy-3-{4-[2-(5-methyl-2-phenyl-oxazol-4-yl)-ethoxy]-benzo[b]thiophen-7-yl}-propanoate]
[5]; humidity controlled XRPD
  relative humidity below which reversible transformation into a dehydrated solid form occurs: < 15 %-RH

## CO[C@@H](Cc1ccc(OCCc2nc(-c3ccccc3)oc2C)c2ccsc12)C(=O)[O-].[Na+] [Sodium salt amorphous form, sodium (S)-2-methoxy-3-{4-[2-(5-methyl-2-phenyl-oxazol-4-yl)-ethoxy]-benzo[b]thiophen-7-yl}-propanoate]
[5]
  relative humidity above which transformation into hydrated form occurs: Above 50 % RH
[2]
  hygroscopicity: hygroscopic
[4]
  temperature of thermal transformation into Sodium salt Form A: > 115 °C
  glass transition temperature, above which recrystallization is likely to occur: approx. 65.5 °C

## CO[C@@H](Cc1ccc(OCCc2nc(-c3ccccc3)oc2C)c2ccsc12)C(=O)O [amorphous form of the Free acid, (S)-2-methoxy-3-{4-[2-(5-methyl-2-phenyl-oxazol-4-yl)-ethoxy]-benzo[b]thiophen-7-yl}-propionic acid]
[2]; listed as amorphous form of (S)-2-methoxy-3-{4-[2-(5-methyl-2-phenyl-oxazol-4-yl)-ethoxy]-
  hygroscopicity: hygroscopic
[4]
  glass transition temperature, above which recrystallization is likely to occur: approx. 44 °C

## diisopropylammonium (S)-2-methoxy-3-{4-[2-(5-methyl-2-phenyl-oxazol-4-yl)-ethoxy]-benzo[b]thiophen-7-yl}-propanoate [Diisopropylammonium salt Form A]
[2]
  hygroscopicity: slightly hygroscopic
[6]
  decomposition temperature: approx. 100 °C
